Measured values: patent publication US20220378706A1, “PHARMACEUTICAL COMPOSITION COMPRISING PDE9 INHIBITOR” (Eisai R&D Management Co., Ltd., priority 2017, published 2022)
Like-named read-outs stand apart in the source and are kept apart here.

Assay: Single dose clinical study Part B: CSF Compound A pharmacokinetics
Assay type: in vivo
Details: human
Description: After the Screening Period, subjects returned to the clinic on […] for Baseline procedures. […] Serial CSF sampling via the lumbar catheter commenced on Day 1, after an overnight fast. CSF samples were collected on Day 1 over a period of 3 hours predose. Subjects were then administered study drug, and serial CSF sampling for 30 hours postdose was performed to determine CSF cGMP and CSF Compound A concentrations. Blood samples for plasma Compound A PK were collected at the same time points as CSF sampling. Safety evaluations were also performed.
Concentrations of Compound A in CSF were analyzed in serial CSF samples collected at predose and postdose at 1, 2, 3, 4, 5, 6, 8, 10, 12, 14, 16, 18, 24, and 30 hours.
Plasma, urine and CSF concentrations of Compound A were measured using validated liquid chromatography mass spectrometry/mass spectrometry (LC MS/MS) assay methods. CSF concentrations of cGMP were measured using a validated LC-MS/MS assay method.
The following PK parameters were derived by noncompartmental analysis using CSF Compound A concentrations: […]

## COc1ncc(C)c(-c2ccc3c(c2)[nH]c(=O)c2cnn([C@H]4CCOC4)c23)c1C [Compound A, (S)-7-(2-methoxy-3,5-dimethylpyridin-4-yl)-1-(tetrahydrofuran-3-yl)-1H-pyrazolo[4,3-c]quin olin-4(5H)-one]
CSF and plasma, oral, 50 to 400 mg, read-out: GM ratios of CSF AUC(0-t) to plasma AUC(0-t) across doses
  Kp: 0.0241 to 0.028
CSF and plasma, oral, 50 to 400 mg, read-out: GM ratios of CSF Cmax to plasma Cmax across doses
  Kp: 0.02 to 0.0277
CSF and plasma, po, 50 mg, healthy adults Part B, single oral 50 mg, fasted, read-out: CSF: plasma Cmax ratio (expressed as %) GM (% CV)
  Kp: 0.02
CSF and plasma, po, 75 mg, healthy adults Part B, single oral 75 mg, fasted, from AUC (0-t) or AUC (0-30 h), read-out: CSF: plasma AUC ratio (expressed as %) GM (% CV)
  Kp: 0.0264
CSF and plasma, po, 75 mg, healthy adults Part B, single oral 75 mg, fasted, read-out: CSF: plasma Cmax ratio (expressed as %) GM (% CV)
  Kp: 0.0264
CSF and plasma, po, 100 mg, healthy adults Part B, single oral 100 mg, fasted, from AUC (0-t) or AUC (0-30 h), read-out: CSF: plasma AUC ratio (expressed as %) GM (% CV)
  Kp: 0.0266
CSF and plasma, po, 100 mg, healthy adults Part B, single oral 100 mg, fasted, read-out: CSF: plasma Cmax ratio (expressed as %) GM (% CV)
  Kp: 0.0194
CSF and plasma, po, 200 mg, healthy adults Part B, single oral 200 mg, fasted, from AUC (0-t) or AUC (0-30 h), read-out: CSF: plasma AUC ratio (expressed as %) GM (% CV)
  Kp: 0.0238
CSF and plasma, po, 200 mg, healthy adults Part B, single oral 200 mg, fasted, read-out: CSF: plasma Cmax ratio (expressed as %) GM (% CV)
  Kp: 0.0214
CSF and plasma, po, 400 mg, healthy adults Part B, single oral 400 mg, fasted, from AUC (0-t) or AUC (0-30 h), read-out: CSF: plasma AUC ratio (expressed as %) GM (% CV)
  Kp: 0.0279
CSF and plasma, po, 400 mg, healthy adults Part B, single oral 400 mg, fasted, read-out: CSF: plasma Cmax ratio (expressed as %) GM (% CV)
  Kp: 0.0203
CSF, oral, 50 to 400 mg, read-out: mean CSF:plasma ratios (expressed as percentages) of Cmax or AUC(0-t)
  Kp: 0.02 to 0.03
CSF, oral, single doses (50 to 400 mg except 50 mg; b332: 100 to 400 mg), read-out: median CSF tmax across doses
  Tmax: 4.37 to 6.87 h
CSF, healthy adults Part B, single oral 50 mg, fasted, read-out: CSF tmax Median
  Tmax: 11.9 h
CSF, healthy adults Part B, single oral 75 mg, fasted, read-out: CSF tmax Median
  Tmax: 5.37 h
CSF, healthy adults Part B, single oral 100 mg, fasted, read-out: CSF tmax Median
  Tmax: 6.87 h
CSF, healthy adults Part B, single oral 200 mg, fasted, read-out: CSF tmax Median
  Tmax: 4.37 h
CSF, healthy adults Part B, single oral 400 mg, fasted, read-out: CSF tmax Median
  Tmax: 5.37 h
